From patent US20250120967A1, “TYROSINE KINASES INHIBITORS AND USES THEREOF” (GREAT NOVEL THERAPEUTICS BIOTECH & MEDICALS CORPORATION, priority 2023, published 2025)
pIC50: −log10 of the molar value.

Legend:
EGFR (ErbB1) = EGFR (ErbB1) (Homo sapiens, UniProt P00533); assay: Tyrosine kinase inhibition assay; type: biochemical; details: single concentration 1.0 μM, read-out: percent inhibition
Experimental: (§1) Tyrosine kinase inhibition assays were performed at ThermoFisher Life Technologies (Madison, WI, USA) using standard protocols (SelectScreen Biochemical Profiling Service, Thermo Fisher Scientific). ATP concentrations used were at the apparent Km. Test compounds were screened in 1% dimethylsulffoxide (DMSO) (final concentration) in the well. For 10-point titrations, 3-fold serial dilutions were conducted from the starting concentration of […]. All Peptide/Kinase Mixtures were diluted to a 2× working concentration in the appropriate Kinase Buffer. All ATP Solutions were diluted to a 4× working concentration in Kinase Buffer (50 mM HEPES pH 7.5, 0.01% BRIJ-35, 10 mM MgCl2, 1 mM EGTA). The apparent ATP Km was previously determined using a Z′-LYTE assay. The Development Reagent was diluted in Development Buffer.
(§2) The inhibition activities of compounds were determined in biochemical assays using single concentration (1.0 μM) measurements. The results were provided as percent inhibition values. […] 99 different tyrosine kinases were used.

FLT1 (VEGFR1) = FLT1 (VEGFR1) (Homo sapiens, UniProt P17948); assay: Tyrosine kinase inhibition assay; type: biochemical; details: single concentration 1.0 μM, read-out: percent inhibition
Experimental: as §1, §2

ABL1 = ABL1 (Homo sapiens, UniProt P00519); assay: Tyrosine kinase inhibition assay; type: biochemical; details: single concentration 1.0 μM, read-out: percent inhibition
Experimental: as §1, §2

EPHB2 = biological target: T1, EPHB2 (Homo sapiens, UniProt P29323); assay: Tyrosine kinase inhibition assay; type: biochemical; details: single concentration 1.0 μM, read-out: percent inhibition
T1 sequence (P29323 19-1055): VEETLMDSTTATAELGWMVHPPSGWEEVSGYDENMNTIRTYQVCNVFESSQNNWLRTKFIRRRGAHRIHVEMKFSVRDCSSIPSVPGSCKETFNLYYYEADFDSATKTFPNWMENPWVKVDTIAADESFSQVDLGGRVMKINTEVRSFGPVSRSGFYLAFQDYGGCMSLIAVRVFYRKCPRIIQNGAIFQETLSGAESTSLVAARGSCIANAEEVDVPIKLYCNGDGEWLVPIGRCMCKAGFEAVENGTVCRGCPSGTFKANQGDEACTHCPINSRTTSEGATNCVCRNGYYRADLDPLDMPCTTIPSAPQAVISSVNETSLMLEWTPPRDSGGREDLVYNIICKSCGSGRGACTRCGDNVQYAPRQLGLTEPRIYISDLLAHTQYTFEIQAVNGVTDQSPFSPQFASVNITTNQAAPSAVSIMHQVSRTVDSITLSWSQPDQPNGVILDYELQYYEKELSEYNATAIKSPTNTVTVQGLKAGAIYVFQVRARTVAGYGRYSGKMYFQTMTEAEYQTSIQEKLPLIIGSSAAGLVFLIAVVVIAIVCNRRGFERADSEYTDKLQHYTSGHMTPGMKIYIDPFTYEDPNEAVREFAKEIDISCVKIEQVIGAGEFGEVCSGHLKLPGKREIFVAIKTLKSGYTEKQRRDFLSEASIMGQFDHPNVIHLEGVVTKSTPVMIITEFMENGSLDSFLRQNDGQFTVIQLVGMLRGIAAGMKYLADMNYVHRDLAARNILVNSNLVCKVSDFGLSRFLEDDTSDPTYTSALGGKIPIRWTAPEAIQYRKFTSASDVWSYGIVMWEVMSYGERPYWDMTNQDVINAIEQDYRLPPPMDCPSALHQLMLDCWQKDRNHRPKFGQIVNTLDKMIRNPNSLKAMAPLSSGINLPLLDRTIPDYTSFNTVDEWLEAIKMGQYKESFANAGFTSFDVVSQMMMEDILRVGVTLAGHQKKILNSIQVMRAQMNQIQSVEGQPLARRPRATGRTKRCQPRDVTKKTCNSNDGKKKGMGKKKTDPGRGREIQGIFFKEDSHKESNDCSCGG
Experimental: as §1, §2

PTK2 (FAK) = PTK2 (FAK) (Homo sapiens, UniProt Q05397); assay: Tyrosine kinase inhibition assay; type: biochemical; details: single concentration 1.0 μM, read-out: percent inhibition
Experimental: as §1, §2

KDR (VEGFR2) = KDR (VEGFR2) (Homo sapiens, UniProt P35968); assay: Tyrosine kinase inhibition assay; type: biochemical; details: for inhibition at 1 µM: single concentration 1.0 μM, read-out: percent inhibition; for pIC50: read-out: IC50 of compound
Experimental: as §1
The inhibition activities of compounds were determined in biochemical assays using single concentration (1.0 μM) measurements. The results were provided as percent inhibition values.

[1] = test system: NCI-60 human cancer cell lines; assay: NCI-60 screen (SRB), panel average; type: cell-based; details: average over the NCI-60 cell lines of the table
Experimental: The human tumor cell lines of the cancer screening panel are grown in RPMI 1640 medium containing 5% fetal bovine serum and 2 mM L-glutamine. For a typical screening experiment, cells are inoculated into 96 well microtiter plates in 100 μL at plating densities ranging from 5,000 to 40,000 cells/well depending on the doubling time of individual cell lines. After cell inoculation, the microtiter plates are incubated at 37° C., 5% CO2, 95% air and 100% relative humidity for 24 h prior to addition of experimental drugs. After 24 h, two plates of each cell line are fixed in situ with TCA, to represent a measurement of the cell population for each cell line at the time of drug addition (Tz). Experimental drugs are solubilized in dimethyl sulfoxide at 400-fold the desired final maximum test concentration and stored frozen prior to use. At the time of drug addition, an aliquot of frozen concentrate is thawed and diluted to twice the desired final maximum test concentration with complete medium containing 50 µg/ml gentamicin. An additional four, 10-fold or M log serial dilutions are made to provide a total of five drug concentrations plus control. Aliquots of 100 μl of these different drug dilutions are added to the appropriate microtiter wells already containing 100 μl of medium, resulting in the required final drug concentrations. Following drug addition, the plates are incubated for an additional 48 h at 37° C., 5% CO2, 95% air, and 100% relative humidity. For adherent cells, the assay is terminated by the addition of cold TCA. Cells are fixed in situ by the gentle addition of 50 μl of cold 50% (w/v) TCA (final concentration, 10% TCA) and incubated for 60 minutes at 4° C. The supernatant is discarded, and the plates are washed five times with tap water and air dried. Sulforhodamine B (SRB) solution (100 l) at 0.4% (w/v) in 1% acetic acid is added to each well, and plates are incubated for 10 minutes at room temperature. […] Bound stain is subsequently solubilized with 10 mM trizma base, and the absorbance is read on an automated plate reader at a wavelength of 515 nm. […]

FLT1 (VEGFR1), sequence (P17948 27-1338): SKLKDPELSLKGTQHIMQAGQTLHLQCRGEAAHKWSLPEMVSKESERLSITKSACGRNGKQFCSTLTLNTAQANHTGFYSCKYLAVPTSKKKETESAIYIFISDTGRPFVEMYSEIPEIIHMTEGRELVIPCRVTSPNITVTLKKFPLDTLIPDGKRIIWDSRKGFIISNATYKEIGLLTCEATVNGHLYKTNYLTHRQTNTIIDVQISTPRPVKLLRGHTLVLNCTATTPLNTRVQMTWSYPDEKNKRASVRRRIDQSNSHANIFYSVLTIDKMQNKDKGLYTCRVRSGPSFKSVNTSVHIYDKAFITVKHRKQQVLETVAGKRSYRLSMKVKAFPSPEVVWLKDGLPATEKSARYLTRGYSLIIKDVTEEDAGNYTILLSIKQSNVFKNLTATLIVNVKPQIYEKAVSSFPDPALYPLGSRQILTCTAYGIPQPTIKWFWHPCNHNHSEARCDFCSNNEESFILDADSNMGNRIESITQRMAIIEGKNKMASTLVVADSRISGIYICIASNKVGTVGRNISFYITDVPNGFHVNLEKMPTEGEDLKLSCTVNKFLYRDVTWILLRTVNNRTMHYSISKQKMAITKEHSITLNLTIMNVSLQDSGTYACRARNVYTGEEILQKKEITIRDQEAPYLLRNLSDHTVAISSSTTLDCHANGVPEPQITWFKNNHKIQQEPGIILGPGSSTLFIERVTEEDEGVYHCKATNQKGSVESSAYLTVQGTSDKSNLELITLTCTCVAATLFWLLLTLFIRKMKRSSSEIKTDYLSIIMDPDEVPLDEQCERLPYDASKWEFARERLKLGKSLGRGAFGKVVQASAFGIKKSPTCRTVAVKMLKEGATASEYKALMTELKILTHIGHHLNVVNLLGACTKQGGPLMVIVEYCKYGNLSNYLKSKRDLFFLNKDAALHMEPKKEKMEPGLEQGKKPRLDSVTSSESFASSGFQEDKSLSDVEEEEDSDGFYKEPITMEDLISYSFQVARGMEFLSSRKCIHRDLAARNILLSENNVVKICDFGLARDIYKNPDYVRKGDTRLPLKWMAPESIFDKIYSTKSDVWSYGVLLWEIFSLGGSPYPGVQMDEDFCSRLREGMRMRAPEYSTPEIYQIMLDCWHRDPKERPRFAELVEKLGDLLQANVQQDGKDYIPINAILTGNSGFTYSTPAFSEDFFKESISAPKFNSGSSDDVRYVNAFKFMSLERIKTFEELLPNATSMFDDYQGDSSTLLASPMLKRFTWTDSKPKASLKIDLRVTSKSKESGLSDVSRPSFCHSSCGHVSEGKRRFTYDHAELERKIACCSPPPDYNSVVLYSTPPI
EGFR (ErbB1), sequence (P00533 25-1210): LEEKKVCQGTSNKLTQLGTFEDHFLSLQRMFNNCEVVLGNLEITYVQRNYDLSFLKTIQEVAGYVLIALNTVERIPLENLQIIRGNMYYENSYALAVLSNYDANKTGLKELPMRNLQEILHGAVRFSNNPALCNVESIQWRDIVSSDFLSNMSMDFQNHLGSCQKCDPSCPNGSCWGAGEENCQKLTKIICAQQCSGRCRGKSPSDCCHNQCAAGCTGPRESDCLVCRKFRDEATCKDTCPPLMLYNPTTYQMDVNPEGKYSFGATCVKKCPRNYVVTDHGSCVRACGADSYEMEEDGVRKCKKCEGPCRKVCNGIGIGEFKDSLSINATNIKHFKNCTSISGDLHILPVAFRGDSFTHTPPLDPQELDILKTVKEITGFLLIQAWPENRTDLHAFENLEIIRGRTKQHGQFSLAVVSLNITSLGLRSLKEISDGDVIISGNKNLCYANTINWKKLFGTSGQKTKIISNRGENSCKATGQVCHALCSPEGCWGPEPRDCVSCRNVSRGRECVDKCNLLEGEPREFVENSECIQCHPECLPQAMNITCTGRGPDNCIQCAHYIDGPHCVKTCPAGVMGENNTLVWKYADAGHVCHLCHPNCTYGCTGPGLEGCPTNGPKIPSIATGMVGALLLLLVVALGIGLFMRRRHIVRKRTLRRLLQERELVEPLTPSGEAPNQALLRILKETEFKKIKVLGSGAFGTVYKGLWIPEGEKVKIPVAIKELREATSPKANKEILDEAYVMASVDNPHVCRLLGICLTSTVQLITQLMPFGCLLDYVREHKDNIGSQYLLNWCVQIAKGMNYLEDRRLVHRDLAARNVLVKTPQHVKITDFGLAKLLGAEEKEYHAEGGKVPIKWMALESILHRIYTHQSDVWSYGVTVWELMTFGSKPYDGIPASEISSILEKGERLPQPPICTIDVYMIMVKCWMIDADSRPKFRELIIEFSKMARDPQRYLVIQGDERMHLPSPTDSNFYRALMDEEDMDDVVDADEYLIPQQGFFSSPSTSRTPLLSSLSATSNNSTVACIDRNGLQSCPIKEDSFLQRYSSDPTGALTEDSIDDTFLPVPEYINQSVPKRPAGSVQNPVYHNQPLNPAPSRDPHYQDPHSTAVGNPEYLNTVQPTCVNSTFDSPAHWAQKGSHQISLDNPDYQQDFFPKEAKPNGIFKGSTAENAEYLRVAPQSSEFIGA
KDR (VEGFR2), sequence (P35968 20-1356): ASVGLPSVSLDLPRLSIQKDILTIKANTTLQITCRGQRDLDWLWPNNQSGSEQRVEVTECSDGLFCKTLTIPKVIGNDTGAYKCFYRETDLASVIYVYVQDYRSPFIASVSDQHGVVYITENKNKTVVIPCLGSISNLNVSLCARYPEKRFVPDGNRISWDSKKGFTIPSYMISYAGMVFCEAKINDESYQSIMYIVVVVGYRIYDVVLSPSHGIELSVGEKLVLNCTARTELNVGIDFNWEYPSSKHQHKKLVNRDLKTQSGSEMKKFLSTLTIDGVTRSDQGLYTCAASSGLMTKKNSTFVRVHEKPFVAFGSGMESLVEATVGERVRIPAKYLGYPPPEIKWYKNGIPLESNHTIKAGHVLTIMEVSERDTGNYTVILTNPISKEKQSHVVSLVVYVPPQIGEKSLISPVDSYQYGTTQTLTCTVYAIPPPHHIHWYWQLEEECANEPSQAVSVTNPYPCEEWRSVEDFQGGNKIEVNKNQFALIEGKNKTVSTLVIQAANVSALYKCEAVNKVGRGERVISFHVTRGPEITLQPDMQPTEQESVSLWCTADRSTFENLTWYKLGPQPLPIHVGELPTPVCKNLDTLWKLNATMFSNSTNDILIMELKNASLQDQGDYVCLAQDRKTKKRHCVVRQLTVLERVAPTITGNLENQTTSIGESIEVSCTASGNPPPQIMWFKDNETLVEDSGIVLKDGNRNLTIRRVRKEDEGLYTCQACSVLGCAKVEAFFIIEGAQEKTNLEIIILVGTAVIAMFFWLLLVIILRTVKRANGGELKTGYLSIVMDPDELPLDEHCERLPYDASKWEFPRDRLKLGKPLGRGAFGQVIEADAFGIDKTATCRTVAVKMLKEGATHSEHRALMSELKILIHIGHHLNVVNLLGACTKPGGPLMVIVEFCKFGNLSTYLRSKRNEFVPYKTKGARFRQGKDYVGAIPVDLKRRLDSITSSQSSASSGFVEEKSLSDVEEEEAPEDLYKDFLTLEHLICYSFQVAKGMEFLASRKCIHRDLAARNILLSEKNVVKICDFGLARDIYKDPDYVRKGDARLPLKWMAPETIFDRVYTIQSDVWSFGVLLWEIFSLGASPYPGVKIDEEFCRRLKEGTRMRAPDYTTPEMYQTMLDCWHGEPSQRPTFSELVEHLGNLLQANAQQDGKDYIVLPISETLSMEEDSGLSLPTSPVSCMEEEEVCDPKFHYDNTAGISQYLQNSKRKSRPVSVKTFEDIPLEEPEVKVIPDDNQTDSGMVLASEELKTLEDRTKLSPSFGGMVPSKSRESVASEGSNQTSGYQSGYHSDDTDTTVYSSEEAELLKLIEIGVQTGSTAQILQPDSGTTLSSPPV
PTK2 (FAK), sequence (Q05397 whole entry): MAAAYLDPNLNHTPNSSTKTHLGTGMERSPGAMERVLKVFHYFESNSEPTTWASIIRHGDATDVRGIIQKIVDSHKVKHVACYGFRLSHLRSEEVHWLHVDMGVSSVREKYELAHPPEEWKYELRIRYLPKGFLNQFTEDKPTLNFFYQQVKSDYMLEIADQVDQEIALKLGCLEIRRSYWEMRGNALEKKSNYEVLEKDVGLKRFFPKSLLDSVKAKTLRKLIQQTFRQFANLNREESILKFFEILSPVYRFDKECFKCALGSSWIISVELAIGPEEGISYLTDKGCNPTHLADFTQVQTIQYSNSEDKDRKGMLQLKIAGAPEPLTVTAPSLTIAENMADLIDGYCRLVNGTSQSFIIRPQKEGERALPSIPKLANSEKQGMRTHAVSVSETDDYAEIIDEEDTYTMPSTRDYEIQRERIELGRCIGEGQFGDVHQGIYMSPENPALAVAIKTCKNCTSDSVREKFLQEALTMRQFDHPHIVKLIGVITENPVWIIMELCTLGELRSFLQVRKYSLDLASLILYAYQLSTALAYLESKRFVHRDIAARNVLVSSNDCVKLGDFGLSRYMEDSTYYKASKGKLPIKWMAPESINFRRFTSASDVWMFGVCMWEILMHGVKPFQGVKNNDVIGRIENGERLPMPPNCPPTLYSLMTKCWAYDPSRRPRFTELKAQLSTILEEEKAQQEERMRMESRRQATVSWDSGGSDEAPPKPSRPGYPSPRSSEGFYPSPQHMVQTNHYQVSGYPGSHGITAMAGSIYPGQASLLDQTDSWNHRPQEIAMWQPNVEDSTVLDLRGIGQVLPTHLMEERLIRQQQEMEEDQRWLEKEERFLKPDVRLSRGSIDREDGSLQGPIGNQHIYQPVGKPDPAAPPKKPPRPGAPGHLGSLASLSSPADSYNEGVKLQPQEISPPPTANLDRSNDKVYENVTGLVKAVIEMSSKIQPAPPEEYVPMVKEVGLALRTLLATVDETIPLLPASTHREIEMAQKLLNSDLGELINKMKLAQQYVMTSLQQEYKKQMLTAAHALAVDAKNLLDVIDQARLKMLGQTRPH

Structure (SMILES) | inhibition at 1 µM (EGFR (ErbB1)) [%] | inhibition at 1 µM (FLT1 (VEGFR1)) [%] | inhibition at 1 µM (ABL1) [%] | inhibition at 1 µM (EPHB2) [%] | inhibition at 1 µM (PTK2 (FAK)) [%] | inhibition at 1 µM (KDR (VEGFR2)) [%] | GI50 [1] [nM] | pIC50 (KDR (VEGFR2))
COc1cc2nccc(Oc3ccc(NC(=O)C4(C(=O)Nc5ccc(F)cc5)CC4)cc3)c2cc1OC [Cabozantinib, reference compound] | 32 | 67 | – | – | – | – | – | –
COc1cc2nccc(Oc3ccc(NC(=O)C4(NC(=O)c5ccc(F)cc5)CC4)cc3F)c2cc1OC [Cbo-02, N-(1-((4-((6,7-diMethoxyquinolin-4-yl)oxy)-3-fluorophenyl)carbamoyl)cyclopropyl)-4-fluorobenzamide] | 44 | 30 | 24 | 13 | 20 | 96 | 2560 | –
COc1cc2nccc(Oc3ccc(NC(=O)C4(NC(=O)c5ccc(F)cc5)CC4)cc3F)c2cc1Oc1ccc(N)cc1F [Cbo-10] | 88 | 61 | 32 | 64 | 33 | 98 | 1570 | –
COc1cc2nccc(Oc3ccc(NC(=O)C4(NC(=O)c5ccc(F)cc5)CC4)cc3F)c2cc1Oc1c(F)cc(N)cc1F [Cbo-14] | 89 | 62 | 44 | 77 | 29 | 100 | – | –
COc1cc2nccc(Oc3ccc(NC(=O)C4(C(=O)Nc5ccc(F)cc5)CC4)cc3F)c2cc1Oc1ccc(N)cc1F [Cbo-23] | 58 | 76 | 58 | 100 | 66 | 98 | 730 | 7.53
CNC(=O)c1cc2c(Oc3ccc(NC(=O)C4(C(=O)Nc5ccc(F)cc5)CC4)cc3)ccnc2cc1OC [Zanzalintinib, reference compound] | – | – | – | – | – | – | – | 8.61
